In patent US8017784B2, “Substituted sulfoxide compounds, methods for preparing the same and use thereof” (Livzon Pharmaceutical Group, Inc., priority 2005, dated 2011):

Tested on: Acute Gastric Ulcer of Rats
Assay: Effect on acute gastric ulcer of rats (pyloric ligation method, Shay method)
Format: in vivo
Details: for Average Volume of Gastric Juice / Index of Ulcer (sum of the long diameter of each ulcer) / Inhibition Ratio of gastric juice / Inhibition Ratio of index of ulcer: SD female rats, 3 mg/kg via duodenum; for Average Volume of Gastric Juice / Index of Ulcer (sum of the long diameter of each ulcer): 6 hours after dosing; for Inhibition Ratio of gastric juice / Inhibition Ratio of index of ulcer: 6 hours, versus control group; for Inhibition of gastric juice secretion and ulceration compared with racemate: rats, result in words
Experimental: The effect of optically pure (+)/(−)-5-(1H-pyrrol-1-yl)-2-[[(4-methoxy-3-methyl-2-pyridyl)-methyl]sulfinyl]-1-hydro-benzimidazole on the acute gastric ulcer of rats were investigated using a pyloric ligation method (Shay method), and the results were compared with a normal control group and a racemate group. The specific test methods were as follows.
Twenty-six healthy SD female adult rats were divided randomly into 4 groups and fasted, except water, for 24 hours. Each rat was then anesthesized with 30 mg/kg Sodium Pentobarbital and subjected to pyloric ligation. After that, 3 groups of rats (treated group) were administered immediately via dodecadactylon with a racemate, a levo-enantiomer and a dextro-enantiomer of 5-(1H-pyrrol-1-yl)-2-[[(4-methoxy-3-methyl-2-pyridyl)-methyl]sulfinyl]-1-hydro-benzimidazole, respectively, at a dose of 3 mg/kg, and the other group (control group) is administered with the same volume of solvent.
All rats were then fasted including water for 6 hours followed by being sacrificed. The stomach was removed from rats after cardiac orifice ligation, and the volume of gastric juice was collected. After being fixed with 10% formalin solution, the stomach was incised along the greater curvature of stomach, the gastric wall was unwraped, and the degree and number of ulcers of the gastric mucosa were observed visually. Sum of the long diameter of each ulcer was defined as the index of ulcer. All rats were housed in metabolic cages during the test.

Compound	Average Volume of Gastric Juice (3 mg/kg)	Index of Ulcer (sum of the long diameter of each ulcer) (3 mg/kg)	Inhibition Ratio of gastric juice (3 mg/kg)	Inhibition Ratio of index of ulcer (3 mg/kg)	Inhibition Ratio of index of ulcer	Inhibition of gastric juice secretion and ulceration compared with racemate (3 mg/kg)
COc1ccnc(C[S+]([O-])c2nc3cc(-n4cccc4)ccc3[nH]2)c1C (racemic) [Racemate, 5-(1H-pyrrol-1-yl)-2-[[(4-methoxy-3-methyl-2-pyridyl)-methyl]sulfinyl]-1-hydro-benzimidazole, reference compound]	3.2 ± 2.3 mL	14 ± 8 mm	30.8%	41.8%	–	–
COc1ccnc(C[S+]([O-])c2nc3cc(-n4cccc4)ccc3[nH]2)c1C (single isomer, unassigned; (+)) [Dextro-enantiomer, (+)-5-(1H-pyrrol-1-yl)-2-[[(4-methoxy-3-methyl-2-pyridyl)-methyl]sulfinyl]-1-hydro-benzimidazole]	2.6 ± 1.1 mL	6 ± 7 mm	43.2%	–	75.6%	more effective in inhibiting gastric juice secretion and ulceration as compared with their racemate
COc1ccnc(C[S+]([O-])c2nc3cc(-n4cccc4)ccc3[nH]2)c1C (single isomer, unassigned; (-)) [Levo-enantiomer, (−)-5-(1H-pyrrol-1-yl)-2-[[(4-methoxy-3-methyl-2-pyridyl)-methyl]sulfinyl]-1-hydro-benzimidazole]	1.4 ± 1.0 mL	6 ± 6 mm	68.3%	–	75.6%	more effective in inhibiting gastric juice secretion and ulceration as compared with their racemate
